Laboratory results reported in PubChem BioAssay (NCI).
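Where inhibition never reached the appropriate level, the endpoint shown equals the highest concentration tested. Otherwise, values were interpolated linearly from a five-concentration, 48-hour dose response in 96-well plates. At the GI50, growth is halved. TGI is the concentration that stops growth completely.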

Assays:
Experiment in all cases: NCI-60 cell line screen, 48 h
ACHN renal = tested on: ACHN renal
M19-MEL melanoma = tested on: M19-MEL melanoma
SF-295 CNS = tested on: SF-295 CNS
KM12 colon = tested on: KM12 colon
HOP-62 NSCLC = tested on: HOP-62 NSCLC
MOLT-4 leukemia = tested on: MOLT-4 leukemia
SNB-75 CNS = tested on: SNB-75 CNS
LOX IMVI melanoma = tested on: LOX IMVI melanoma
XF 498 CNS = tested on: XF 498 CNS
SK-MEL-5 melanoma = tested on: SK-MEL-5 melanoma

Compound | TGI (ACHN renal) [µM] | TGI (M19-MEL melanoma) [µM] | TGI (SF-295 CNS) [µM] | TGI (KM12 colon) [µM] | TGI (HOP-62 NSCLC) [µM] | TGI (MOLT-4 leukemia) [µM] | TGI (SNB-75 CNS) [µM] | TGI (LOX IMVI melanoma) [µM] | TGI (XF 498 CNS) [µM] | TGI (SK-MEL-5 melanoma) [µM] | GI50 (ACHN renal) [µM] | GI50 (M19-MEL melanoma) [µM] | GI50 (SF-295 CNS) [µM] | GI50 (KM12 colon) [µM] | GI50 (HOP-62 NSCLC) [µM] | GI50 (MOLT-4 leukemia) [µM] | GI50 (SNB-75 CNS) [µM] | GI50 (LOX IMVI melanoma) [µM] | GI50 (XF 498 CNS) [µM] | GI50 (SK-MEL-5 melanoma) [µM]
O=C(Nc1cc(Cl)ccc1Cl)c1cc2cccc(Cl)c2oc1=O | > 100 | > 100 | > 100 | > 100 | > 100 | > 100 | > 100 | > 100 | > 100 | > 100 | – | – | – | – | – | – | – | – | – | –
CC(=O)n1c2c(c(=O)n1-c1ccccc1)S(=O)CCC2 (stereo not given) | > 100 | > 100 | > 100 | > 100 | 28.2 | 6.9 | > 100 | > 100 | > 100 | > 100 | – | – | – | – | – | – | – | – | – | –
COC1C(O)=C2C(=O)O/C(C)=C/C=C/C=C/C=C\CC(c3ccccc3)NC(=O)\C=C/C=C\C=C\C=C\[C@@]2(C)[C@@H]1O (stereo not given in full) | 0.122 | 0.273 | 0.0238 | 0.165 | 0.146 | 0.177 | 0.0503 | 1.09 | 0.304 | 0.199 | – | – | – | – | – | – | – | – | – | –
COc1cccc(/C=N/[N-]C(=O)c2ccncc2)c1[O-].[Cu+2].[OH3+] | > 100 | > 100 | > 100 | > 100 | 86.4 | > 100 | > 100 | > 100 | > 100 | > 100 | 90.8 | > 100 | > 100 | > 100 | 15.7 | 35.2 | 28.6 | > 100 | > 100 | 74.3
O=c1n(-c2ccccc2)c(=O)n2n1C1C=CC2C2C(C1)C2(Cl)Cl (stereo not given) | > 100 | > 100 | > 100 | > 100 | > 100 | > 100 | > 100 | > 100 | > 100 | > 100 | – | – | – | – | – | – | – | – | – | –
CC(=O)O[C@H]1CCC2[C@@H]3CCC4=C(O)c5nocc5C[C@]4(C)C3CC[C@@]21C (stereo not given in full) | > 100 | > 100 | > 100 | > 100 | > 100 | > 100 | > 100 | > 100 | > 100 | > 100 | – | – | – | – | – | – | – | – | – | –
O=C(CSc1nnc(-c2ccc(N=Cc3ccc(Cl)cc3)cc2)o1)Nc1ccc(Cl)cc1 | > 100 | > 100 | > 100 | > 100 | > 100 | > 100 | > 100 | > 100 | > 100 | > 100 | – | – | – | – | – | – | – | – | – | –
O=c1[nH]cc(COCCO)c(=O)[nH]1 | > 100 | > 100 | > 100 | > 100 | > 100 | > 100 | > 100 | > 100 | > 100 | > 100 | – | – | – | – | – | – | – | – | – | –
